Assay results published in a melting point compilation (Tetko et al.; mined from patent text by program, amines drawn as free bases though some values may be those of a salt).

melting point [°C] | Compound
> 260 | CCCCc1nc2cccnc2n1Cc1ccc2c(Cl)c(C(=O)O)sc2c1
160 to 163 | FC(F)(F)c1cccc(-c2ccnc3nccn23)c1
111 to 113 | COc1c2c(c(OC)c(OC)c1OC)CCC(CCOc1cccnc1)CC2
78 | C[C@H]1[C@H](NC(=O)OC(C)(C)C)C(=O)N1OCc1ccccc1
91 to 92 | Cc1oc(-c2ccccc2)nc1COc1ccc(COc2nn(Cc3ccccc3)cc2CC(=O)O)cc1
> 300 | CCn1cc(C(=O)O)c(=O)c2cc(F)c(N3Cc4ccc(C(=O)OC)cc4C3)cc21
74 to 77 | COc1ccc(CCNC(=O)C(F)(F)F)cc1
136 to 138 | COc1ccc(C2CCN(c3c(C)c(C)c4c(c3C)C(N3CCc5ccccc5CC3)C(C)(C)O4)CC2)cc1OC (stereo not drawn)
151 to 154 | Fc1cccc(F)c1COc1cccnc1NC(=S)Nc1ccc(Cl)cc1
45 to 47 | CCOC(=O)CC(=O)N1C(C(=O)OC(C)(C)C)CCCN1C(=O)OCc1ccccc1 (stereo not drawn)
92 to 94 | CCCCOc1c(-c2cc(C=CC(=O)O)ccc2O)cc(C(C)(C)C)cc1C(C)(C)C
120 to 121 | C#Cc1ccc(Oc2ccc(C(=O)C(=O)c3cccc(C(=O)C(=O)c4ccc(Oc5ccc(C#C)cc5)cc4)c3)cc2)cc1
235 to 236 | CC(C)c1ccc2c(c1)[C@@H](NC(=O)c1ccc(F)cc1)[C@H](O)C(C)(C)O2 (relative stereo)
180 to 182 | CC(C(=O)O)c1ccc2c(c1)Cc1ccccc1-2 (stereo not drawn)
108 | O=S(=O)(c1ccc(Cl)cc1)c1ccc(Cl)s1
162 to 164 | Cc1ccc(-c2nnc(N3CCCCCC3)nc2-c2ccc(C)cc2)cc1
54 to 55 | CCOC(=O)c1cc2c(s1)CCC2=O
202 to 203 | COc1ccc(OC(=O)c2c3ccccc3nc3ccccc23)cc1
97 | O=[N+]([O-])c1cccnc1Nc1ccccc1F
106 to 107 | CCOC(=O)c1cnn2c1nc(OCCCN(C)C)c1cnc3c(cnn3CC)c12
59 to 72 | CCN(CC)c1ccc(N(c2ccc(N(CC)CC)cc2)C2(c3ccc(N(C)C)cc3C)OC(=O)c3ccccc32)cc1 (stereo not drawn)
143 to 144 | COc1ccc(C2Sc3c(Cl)cccc3N(CCN(C)C)C(=O)C2O)cc1 (stereo not drawn)
170 to 173 | COc1ccc(CNc2nc(N3CCCC3CO)nnc2C(=O)NCc2ncccn2)cc1Cl (stereo not drawn)

melting point [°C] | Compound
138 to 139 | COc1cc(OC)c2c(C)c(CCN3CCN(c4cccc(C(F)(F)F)c4)CC3)c(=O)oc2c1
144 to 145 | CCOC(=O)C1=C[C@@H](OC(CC)CC)[C@H](NC(C)=O)[C@@H](NC(=O)OC(C)(C)C)C1
247 to 249 | COc1cc2ncnc(NNC(N)=O)c2cc1OC
169 to 170 | N=C(N)NCCc1ccc(OCCCC(c2ccccc2)(c2ccccc2)c2ccccc2)cc1
249 to 251 | O=C(Nc1ccc(C(=O)O)cc1)OCc1nccn1-c1cc2cc(C(=O)O)c(=O)[nH]c2cc1Cl
132 to 133 | Cc1nc(-c2ccc3c(c2)CCCC3)c(CO)o1
144 to 146 | CC(=NO)c1cc2c(s1)CCCN(CCCCN1CCN(c3ncccn3)CC1)C2=O
147 | OC(CC1CCNCC1)c1cc(-c2ccccc2)nc2ccccc12 (stereo not drawn)
174 | CNc1nn(C(=O)NC(C)(C)C)c(=O)n1N
168 | Cc1c(-c2cccc(C(F)(F)F)c2F)c2cccc(Cl)c2n1CCCNS(C)(=O)=O
140 | COc1cc(-c2ccncc2)n[nH]1
114 to 116 | N#CCCNC(=S)C1=CC(CF)(CF)Oc2ccc([N+](=O)[O-])cc21
120 | O=C1O[C@H](C(O)O)CCN1Cc1ccccc1
130 | CCc1ccccc1-n1ncc(C#N)c1N
156 to 158 | O=C(O)CC1CCc2c(c3ccccc3n2Cc2ccccc2)C1 (stereo not drawn)
102 to 104 | C[C@H](O)C(=O)Nc1ccccn1
170 to 171 | CS(=O)c1ccc(CSc2nnc(-c3ccc4[nH]ncc4c3)o2)cc1C(F)(F)F (stereo not drawn)
190 to 191 | O=C(c1ccco1)N1Cc2c(-c3noc(C4CC4)n3)ncn2-c2ccccc21
132 to 135 | O=C(Nc1ccc(-n2nc(C3CC3)cc2C2CC2)c(F)c1)c1cccc(F)c1F
105 to 108 | O=C(O)CCSc1nnc(S)s1
146 to 148 | CC(C)N1C(=O)NC(c2ccc3c(c2)CCC3)c2cc3c(cc21)OCO3 (stereo not drawn)
184 to 186 | CCC(=O)OCc1cc2c3ccccc3[nH]c(=O)n2n1
93 to 94 | CC(C)c1cc(C(C)C)c(SSc2c(C(C)C)cc(C(C)C)cc2C(C)C)c(C(C)C)c1

melting point [°C] | Compound
110 to 112 | COC(=O)C1(CCCN2CCN(c3ccccc3)CC2)Sc2cc(OC)ccc2OCC1=O (stereo not drawn)
105 to 107 | CC1(C)c2cc(C#N)ccc2OC1N1CCOCC1 (stereo not drawn)
124 to 127 | O=C(NC1CCC(CNc2nc3c(s2)CCOc2ccccc2-3)CC1)OCc1ccccc1 (stereo not drawn)
140 to 143 | CCOC(=O)N1CCC(C#N)(NC(=O)C(CC2CCCCC2)NC(=O)N2CCOCC2)CC1 (stereo not drawn)
100 | NC(=O)N(O)C[C@H]1C[C@@H](c2ccccc2)C1
180 | CCN1c2ncc(CC(F)c3ccncc3)cc2C(=O)N(C)c2ccc(Cl)nc21 (stereo not drawn)
150 to 153 | c1cc2ccc3nnsc3c2cn1
141 to 142 | Clc1ccc(CN2CC=C(/C=C/c3ccccc3)CC2)cc1
57.5 to 60 | O=S(=O)(CC(F)(F)F)N(Cc1cccnc1)c1cccc(Oc2ccccc2O)c1
257 to 260 | O=C1C(=O)N(Cc2ccc([N+](=O)[O-])cc2)CCN1Cc1ccc([N+](=O)[O-])cc1
222 to 225 | O=C(Nc1cccc(Cl)c1)NC1CC(C2CCCCC2)c2ccccc2NC1=O (stereo not drawn)
150 to 160 | O=C(NCCN1CCOCC1)Nc1nc2ccc(OC(c3c(Cl)cccc3Cl)C(F)(F)F)cc2s1 (stereo not drawn)
186 to 187 | Cc1c(-c2ccccc2)oc2c(S(=O)(=O)NCCO)cccc2c1=O
66 to 67 | CC(C)=CC=C(C#N)c1ccccc1
115 | Clc1ccc2c(c1)CCc1cccnc1C2=C1CCN(Cc2cccnc2)CC1
199 to 201 | Cc1cccc(N2CCN(CCCCc3ccc(C(=O)CCC(=O)O)cc3)CC2)c1
79 to 81 | O=Cc1ccccc1Oc1ccc(C(F)(F)F)cc1[N+](=O)[O-]
168 to 170 | Cc1c(C)c2c(c(C)c1N)CC(C)(CN1CCC(C(=O)NCC(c3ccccc3)c3ccccc3)CC1)O2 (stereo not drawn)
172 | Clc1ccc(/C=C/c2ccc[nH]2)cc1
259 to 260 | O=c1cc(CCN2CCC(c3c[nH]c4ccccc34)CC2)c2ccccc2[nH]1
75 to 78 | O=C(CCC1CCCCC1)C1=C(O)COC1=O
88 to 89 | CCc1cc2c(cc1C(CC)SCC(=O)O)OCO2 (stereo not drawn)
101 to 105 | Cn1cc(C(=O)Nc2ccccc2-c2cc(Cl)cc(Cl)c2)c(C(F)(F)F)n1

melting point [°C] | Compound
244 | O=C1c2ccccc2C(=S)N1C1CCC(=S)NC1=S (stereo not drawn)
170 to 172 | COC(=O)C1=C(C)NC(C)=C(C(=O)OCC2CCCO2)C1c1cccc(O)c1 (stereo not drawn)
70.5 to 72 | CCN(CC)CCOc1ccc2c(=O)c3ccc(OCCN(CC)CC)cc3oc2c1
39 to 40 | CCOC(=O)CCCCCCCC1CC2=C(C1)C(=O)C(OC)=C(OC)C2=O
86 to 88 | CCOC(=O)C(C)Oc1ccc(Sc2nnc3cc(Cl)ccc3n2)cc1 (stereo not drawn)
256 to 258 | O=C(Nc1ccc(-c2cnc(-c3ccc(NC(=O)C4CCCCCC4)cc3)[nH]2)cc1)c1cccnc1
148 to 150 | C=CCONC(=O)c1nc(-c2ccc(Cl)c(OC)c2F)nc(N)c1OC
97 to 99 | C[Si](O)(Cn1cncn1)c1ccc(-c2ccccc2)cc1 (stereo not drawn)
201 to 202 | Cc1noc(-c2cc(O)c(O)c([N+](=O)[O-])c2)n1
159 to 162 | Cc1ccc(-c2cc(-c3ccccc3)cc3c2OC(CN)C3)cc1 (stereo not drawn)
160 | CN(C)c1ccccc1CC(=O)N1C[C@H]2[C@@H](C1)C(c1ccccc1)(c1ccccc1)CC[C@@H]2O
148 to 149 | COc1cccc(-c2cc(N)c3cc(OC)ccc3n2)c1
220 to 222 | COc1cc2nc(N3CCN(C(=O)CC(C)O)CC3)nc(N)c2cc1OC (stereo not drawn)
241 to 242 | CC1(C)CCC(C)(C)c2cc(C(N)COc3ccc(C(=O)O)c(O)c3)ccc21 (stereo not drawn)
200 to 202 | COC(=O)c1cccc(C(=O)N(C)c2ccc3c(=O)n4c(nc3c2)C(=Cc2ccccc2)CC4)c1
133 to 134 | CC1(C)Cc2ccoc2C(=O)N1
300 to 303 | CCc1ccc2c(c1)C(=O)c1ccc(C(=O)O)cc1S2(=O)=O
154 to 158 | CC(N)=NS(=O)(=O)C=Cc1c(Cl)cccc1Cl
143 to 144 | O=C(NCC12CC3CC(CC(C3)C1)C2)c1cc(F)ccc1Br
138 to 139 | COc1ccc(CN2C(=O)C3(COc4cc5onc(C)c5cc43)c3ccccc32)cc1 (stereo not drawn)
96.8 | Cn1cncc1C(c1ccc(Cl)cc1)c1ccc2c(c1)c(-c1ccccc1)cc(=O)n2C (stereo not drawn)
102 to 103 | COCOCc1nc(-c2ccccc2)oc1CCc1ccc(O)cc1
215 to 218 | CCCOc1ccc(S(=O)(=O)C(C)(C)C)cc1C(N)=O

Compound | melting point [°C]
CCCCCOc1ccc(C#CC2(O)CN3CCC2CC3)cc1 (stereo not drawn) | 153 to 154
C#CCN1CCc2cc(OC)c(O)c3c2C1Cc1cc(OC)c(OC)cc1-3 (stereo not drawn) | 135 to 150
CCCCCCC(C)(C)c1cc(OCc2ccccc2)c(C2=C(CC#N)CCC(C)C2)c(OCc2ccccc2)c1 (stereo not drawn) | 85 to 86
O=[N+]([O-])C=C(NCc1ccc(Cl)nc1)NCc1ccc(Cl)nc1 | 238 to 240
S=C1CN=C(c2ccccc2Cl)c2cc(CCc3ccccc3)sc2N1 | 175 to 176
COC(=O)C1C(=O)NC(=O)C12C(=O)N1c3ccccc3Sc3cccc2c31 (stereo not drawn) | 221 to 224
